Patent US9115137B2, “2,3,4,5-tetrahydro-1H-pyrido[4,3-B]indole compounds and methods of use thereof” (priority 2008, dated 2015)

Legend:
[1] = molecular target: T1, human recombinant serotonin (5-Hydroxytryptamine) 5-HT2B receptor (Homo sapiens, UniProt P41595); experiment: Serotonin 5-HT2B radioligand binding ([3H]LSD); conditions: compound at 1 μM; CHO-K1 cells; read-out: Serotonin (1 μM) 5-HT2B, percent inhibition of specific binding
T1 construct: expressed in transfected cells; host or cells: CHO-K1 cells
Protocol: To evaluate in radioligand binding assays the activity of compounds of the invention, human recombinant serotonin (5-Hydroxytryptamine) 5-HT2B receptor expressed in Chinese hamster ovary (CHO-K1) cells (Bonhaus, D. W. et al., Br. J. Pharmacol. 115:622, 1995) in a modified Tris-HCl buffer (50 mM Tris-HCl, pH 7.4, 4 mM CaCl2, 0.1% Ascorbic Acid) was used. Compounds of invention were incubated with 1.2 nM [^3H]Lysergic acid diethylamide (LSD) for 60 minutes at 37° C. Non-specific binding was estimated in the presence of 10 μM Serotonin (5-HT). Receptor proteins were filtered and washed, the filters were then counted to determine [^3H]LSD specifically bound. Compounds were screened at 1 μM or lower, using 1% DMSO as vehicle. Compounds of the invention were tested in this biochemical assay and percent inhibition of specific binding was determined. Biochemical assay results are presented as the percent inhibition of specific binding in Table 7.

[2] = molecular target: T2, rat adrenergic α1A receptor (Rattus norvegicus, UniProt P43140); experiment: Adrenergic α1A radioligand binding ([3H]Prozosin); conditions: compound at 1 μM; Wistar Rat submaxillary glands; read-out: Adrenergic (1 μM) α1A, percent inhibition of specific binding
T2 construct: obtained from Wistar Rat submaxillary glands; from tissue; host or cells: Wistar rat submaxillary glands
T2 sequence (P43140 1-466): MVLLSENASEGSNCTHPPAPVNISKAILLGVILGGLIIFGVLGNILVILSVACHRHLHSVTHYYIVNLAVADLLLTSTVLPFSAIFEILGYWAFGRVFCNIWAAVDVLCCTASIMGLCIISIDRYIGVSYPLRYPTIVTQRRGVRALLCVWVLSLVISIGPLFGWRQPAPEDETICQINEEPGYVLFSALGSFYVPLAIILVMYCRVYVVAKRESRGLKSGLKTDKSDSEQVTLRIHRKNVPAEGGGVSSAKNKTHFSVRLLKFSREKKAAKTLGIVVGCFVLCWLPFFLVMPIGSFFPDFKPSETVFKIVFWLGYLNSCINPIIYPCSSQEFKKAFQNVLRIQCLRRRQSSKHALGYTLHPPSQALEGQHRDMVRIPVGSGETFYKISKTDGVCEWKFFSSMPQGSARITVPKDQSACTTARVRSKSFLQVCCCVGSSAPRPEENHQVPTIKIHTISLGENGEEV
Protocol: To evaluate in radioligand binding assays the activity of compounds of the invention, rat adrenergic α1A receptor obtained from Wistar Rat submaxillary glands (Michel, A. D. et al., Br. J. Pharmacol. 98:883, 1989) in a modified Tris-HCl buffer (50 mM Tris-HCl buffer, pH 7.4, 0.5 mM EDTA) was used. Compounds of the invention were incubated with 0.25 nM [^3H]Prozosin for 60 minutes at 25° C. Non-specific binding was estimated in the presence of 10 μM phentolamine. Receptor proteins were filtered and washed, the filters were then counted to determine [^3H]Prozosin specifically bound. Compounds of the invention were screened at 1 μM or lower, using 1% DMSO as vehicle. Compounds of the invention were tested in this biochemical assay and percent inhibition of specific binding was determined. Biochemical assay results are presented as the percent inhibition of specific binding in Table 6.

T1 sequence (P41595 whole entry): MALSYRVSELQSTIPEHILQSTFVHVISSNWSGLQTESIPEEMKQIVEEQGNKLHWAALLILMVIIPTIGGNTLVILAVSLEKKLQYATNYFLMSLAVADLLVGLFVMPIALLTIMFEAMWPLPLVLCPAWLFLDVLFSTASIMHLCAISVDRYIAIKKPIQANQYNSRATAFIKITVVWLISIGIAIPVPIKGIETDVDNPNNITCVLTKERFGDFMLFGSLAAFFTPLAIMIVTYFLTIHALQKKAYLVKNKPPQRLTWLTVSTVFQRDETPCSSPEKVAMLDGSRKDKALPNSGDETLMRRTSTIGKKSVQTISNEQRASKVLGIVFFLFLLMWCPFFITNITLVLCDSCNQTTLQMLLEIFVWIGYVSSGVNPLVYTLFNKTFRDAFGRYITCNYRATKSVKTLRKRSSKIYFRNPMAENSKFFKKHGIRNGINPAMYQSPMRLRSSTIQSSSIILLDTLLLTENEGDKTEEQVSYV

**Q.** Which inhibition at 1 µM [1] does the source give for CCOC(=O)CCn1c2c(c3cc(C)ccc31)CN(C)CC2 [CD1, ethyl 3-(1,2,3,4-tetrahydro-2,8-dimethylpyrido[4,3-b]indol-5-yl)propanoate] here?
**A.** The inhibition at 1 µM was 54%.

**Q.** What about the inhibition at 1 µM [2] of the same molecule?
**A.** Its inhibition at 1 µM is 79%.

**Q.** What does the source list for Cc1ccc2c(c1)c1c(n2CC#N)CCN(C)C1 [CD61, 2-(1,2,3,4-tetrahydro-2,8-dimethylpyrido[4,3-b]indol-5-yl)acetonitrile]?
**A.** inhibition at 1 µM [1]: 43%; inhibition at 1 µM [2]: 82%

**Q.** Which inhibition at 1 µM [1] does the source give for C#CCn1c2c(c3cc(C)ccc31)CN(C)CC2 [CD73, 2,8-dimethyl-5-(prop-2-ynyl)-2,3,4,5-tetrahydro-1H-pyrido[4,3-b]indole] here?
**A.** Its inhibition at 1 µM is 94%.

**Q.** And the inhibition at 1 µM [2]?
**A.** Its inhibition at 1 µM is 65%.

**Q.** For CNC(=O)CCn1c2c(c3cc(C)ccc31)CN(C)CC2 [Compound 1, 3-(1,2,3,4-tetrahydro-2,8-dimethylpyrido[4,3-b]indol-5-yl)-N-methylpropanamide], which inhibition at 1 µM [1] is on record?
**A.** The inhibition at 1 µM was 23%.

**Q.** And the inhibition at 1 µM [2]?
**A.** Its inhibition at 1 µM is 5%.

**Q.** What does the source list for CCNC(=O)CCn1c2c(c3cc(C)ccc31)CN(C)CC2 [Compound 2, N-ethyl-3-(1,2,3,4-tetrahydro-2,8-dimethylpyrido[4,3-b]indol-5-yl)propanamide]?
**A.** inhibition at 1 µM [1]: 20%; inhibition at 1 µM [2]: 10%

**Q.** How did the inhibition at 1 µM [1] turn out when Cc1ccc2c(c1)c1c(n2CCC(=O)NC2CCCCC2)CCN(C)C1 [Compound 3, N-cyclohexyl-3-(1,2,3,4-tetrahydro-2,8-dimethylpyrido[4,3-b]indol-5-yl)propanamide] was run?
**A.** The inhibition at 1 µM was 21%.

**Q.** What about the inhibition at 1 µM [2] of the same molecule?
**A.** Its inhibition at 1 µM is 8%.

**Q.** What does the source list for Cc1ccc2c(c1)c1c(n2CCC(=O)NC2CCCC2)CCN(C)C1 [Compound 4, N-cyclopentyl-3-(1,2,3,4-tetrahydro-2,8-dimethylpyrido[4,3-b]indol-5-yl)propanamide]?
**A.** inhibition at 1 µM [1]: 40%; inhibition at 1 µM [2]: 35%

**Q.** CCOC(=O)CCCn1c2c(c3cc(C)ccc31)CN(C)CC2 [Compound 5, ethyl 4-(1,2,3,4-tetrahydro-2,8-dimethylpyrido[4,3-b]indol-5-yl)butanoate] was tested. Which inhibition at 1 µM [1] did it give?
**A.** Its inhibition at 1 µM is 77%.

**Q.** And the inhibition at 1 µM [2]?
**A.** The inhibition at 1 µM was 69%.

**Q.** What does the source list for CCNC(=O)CCCn1c2c(c3cc(C)ccc31)CN(C)CC2 [Compound 6, N-ethyl-4-(1,2,3,4-tetrahydro-2,8-dimethylpyrido[4,3-b]indol-5-yl)butanamide]?
**A.** inhibition at 1 µM [1]: 21%; inhibition at 1 µM [2]: 18%

**Q.** Which results are given for Cc1ccc2c(c1)c1c(n2CCNC(=O)OCC(Cl)(Cl)Cl)CCN(C)C1 [Compound 8, 2,2,2-trichloroethyl 2-(1,2,3,4-tetrahydro-2,8-dimethylpyrido[4,3-b]indol-5-yl)ethylcarbamate]?
**A.** inhibition at 1 µM [1]: 64%; inhibition at 1 µM [2]: 82%

**Q.** For Cc1ccc2c(c1)c1c(n2CCNC(=O)C2CCCNC2)CCN(C)C1 (stereo not shown) [Compound 9, N-(2-(1,2,3,4-tetrahydro-2,8-dimethylpyrido[4,3-b]indol-5-yl)ethyl)piperidine-3-carboxamide], which inhibition at 1 µM [1] is on record?
**A.** The inhibition at 1 µM was -5%.

**Q.** And the inhibition at 1 µM [2]?
**A.** The inhibition at 1 µM was 5%.
